Where “and” joins values, the source holds several entries; their conditions need not be identical. Identical values can stand only once.
Columns and labels:
[1] = system: HepG2; experiment: MTT cytotoxicity assay, HepG2; assay type: cell-based, human
Experimental: (§1) The in vitro cytotoxicity of OD, 1–3 and the corresponding metal salts were determined by MTT assay towards a panel of human tumor cells including HepG2, T-24, BEL-7404, MGC80-3, SK-OV-3/DDP and normal HL-7702 cells. As the positive control, cisplatin was dissolved at a concentration of 1 mM in 0.154 M NaCl[32].
(§2) The human tumor cell lines (BEL-7404, HepG2, MGC80–3, T-24, SK-OV-3/DDP and HeLa cells) and the human normal liver cell line HL-7702 were obtained from Shanghai Cell Bank in Chinese Academy of Sciences. Cells were cultured in Dulbecco’s modified Eagle’s medium (DMEM) or RPMI-1640 medium, which supplemented with 10% fetal bovine serum (FBS) and 100 U/mL penicillin and streptomycin. Cells were cultured at 37 °C in a humidified atmosphere with 5% CO2/95% air. Tested compounds (2.0 mM) were prepared as DMSO stock solution before they were diluted to working concentrations by PBS buffer (containing 0.5% DMSO), while cisplatin dissolved in 0.9% sodium chloride solution was used as positive controls.
(§3) Cells in their logarithmic phase were seeded in 96-well plates with 5.5 × 10^3/180 μL per well for 24 h. Then 20 μL of compounds at various concentrations were added to each well to achieve final concentrations of 1.25, 2.5, 5.0, 10.0, and 20.0 μM. All the cells were incubated with test compounds for another 48 h before MTT assay. Control wells contained media with 0.5% DMSO. After 48 h of cultivation, 10 μL of MTT (5 mg/mL in PBS) was added to each well, and cells were incubated at 37 °C for 6 h. The contents in the wells were pipetted out carefully, and the formazan crystals formed were dissolved in 100 μL of DMSO, and the absorbance was measured by enzyme labeling instrument with 490 nm/630 nm double wavelength measurement. The IC50 value was defined as a drug concentration killing 50% cells in comparison with untreated controls, which was calculated by the Bliss method (n = 5). All tests were repeated in at least three independent trials.

[2] = system: BEL-7404; experiment: MTT cytotoxicity assay, BEL-7404; assay type: cell-based, human
Experimental: as §1, §2, §3

[3] = system: MGC80-3; experiment: MTT cytotoxicity assay, MGC80-3; assay type: cell-based, human
Experimental: as §1, §2, §3

[4] = system: SK-OV-3/DDP; experiment: MTT cytotoxicity assay, SK-OV-3/DDP; assay type: cell-based, human; conditions: 48 h
Experimental: as §1, §2, §3

[5] = system: HL-7702; experiment: MTT cytotoxicity assay, normal liver cells HL-7702; assay type: cell-based, human; conditions: 48 h
Experimental: as §1, §2, §3

[6] = system: caspase-3; experiment: Caspase-3 activation by flow cytometry (CaspGLOW); assay type: cell-based, human; conditions: HepG2, 1.0 μM, 24 h; control 4.2%
Experimental: (§4) Caspase family is closely related to the cell apoptosis via the mitochondrial pathway, especially caspases-3, -8 and -9. To better understand the antitumor mechanisms, it needs to confirm whether caspase-3, -8 and -9 are activated when the tumor cells are treated with 1–3.
(§5) The measurement of caspase-3, -8 and -9’s activities was performed by CaspGLOW fluorescein active caspase-3, -8 and -9 staining kit. HepG2 cells were treated with 1 μM 1–3 for 24 h, harvested at a density of 1 × 10^6 cells/mL, and then suspended in 300 μL volume with PBS. To the suspension, 1 μL of caspase-3 inhibitor (FITC-DEVD-FMK), caspase-8 inhibitor (FITC-IETD-FMK) or caspase-9 inhibitor (FITC-LEHD-FMK) was consequently added and incubated for 1 h at 37 °C in 5% CO2 incubator. The cells were then examined by a FACSAria II flow cytometer equipped with a 488 nm argon laser. The results were represented as the percent change on the activity compared with the control.

[7] = system: caspase-8; experiment: Caspase-8 activation by flow cytometry (CaspGLOW); assay type: cell-based, human; conditions: HepG2, 1.0 μM, 24 h; control 1.8%
Experimental: as §4, §5

[8] = system: HepG2 xenograft; experiment: HepG2 xenograft nude mice model, tumor growth inhibition; assay type: in vivo, BALB/c nude mice
Experimental: BALB/c nude mice (male, 17–20 g, 5–6 weeks old) were supplied by Guangxi Medical University Laboratory Animal Centre (Guangxi, China, approval no. SCXK 2014–0002 and SYXK 2014–0003). All of the experimental procedures were carried out according to the NIH Guidelines for the Care and Use of Laboratory Animals. Animal experiments were approved by the Animal Care and Use Committee of Guangxi Medical University. Animal were housed at IVC system (individual ventilated caging) with conditions of constant photoperiod (12 h light/12 h dark at 25−28 °C and 45−65% humidity). The xenograft tumor model was established in the same way as we reported before[30]. The maximum solubility of 3 in DMSO/saline solvent (v/v, 5/100) with administration volume 0.8 mL/20 g was used as the high dose (6.0 mg/kg) group (n = 6). Meanwhile low dose group mice got 3.0 mg/kg, intraperitoneal injection every day, and the control group received corresponding solvent. The positive control group was administered with cisplatin at 2.0 mg/kg every two days by intraperitoneal injection (cisplatin dissolved in saline).
The tumor volumes and body weight were measured every 3 days, and tumor size was calculated as volume = (w^2l)/2, where w is the width and l is the length in mm of tumor[70]. On day 21, the mice were sacrificed, and the tumor tissue was dissected out and weighted. The in vivo antitumor activity is evaluated by two indicators[71][72]: the tumor relative increment rate (T/C = TRTV/CRTV × 100%) and tumor weight inhibition rate [IR = (Wc − Wt)/Wc × 100%,], where TRTV and CRTV were the RTV of treated group and control group, respectively (RTV: relative tumor volume, RTV = Vt /V0); Wt and Wc are the average tumor weight of complex-treated and vehicle controlled group, respectively.

[9] = Body weight of mice in the HepG2 xenograft model; assay type: in vivo, BALB/c nude mice; conditions: 3.0 and 6.0 mg/kg ip daily, versus solvent control group
Experimental: To further evaluate the in vivo antitumor efficacy of these complexes, 3 was selected to inhibit tumor growth in a HepG2 xenografts model. The mice were randomized into control group, 3-treated groups and positive control group (n = 6). Once the tumor had grown to an average volume of about 100 mm^3, two group of nude mice were injected intraperitoneally (ip) of 3 at a high dose (6.0 mg/kg) and a low (3.0 mg/kg) dose daily for 20 days, respectively. Cisplatin was used as positive control injected at 2.0 mg/kg every two days, while control group received solvents only.
BALB/c nude mice (male, 17–20 g, 5–6 weeks old) were supplied by Guangxi Medical University Laboratory Animal Centre (Guangxi, China, approval no. SCXK 2014–0002 and SYXK 2014–0003). All of the experimental procedures were carried out according to the NIH Guidelines for the Care and Use of Laboratory Animals. Animal experiments were approved by the Animal Care and Use Committee of Guangxi Medical University. Animal were housed at IVC system (individual ventilated caging) with conditions of constant photoperiod (12 h light/12 h dark at 25−28 °C and 45−65% humidity). The xenograft tumor model was established in the same way as we reported before. […]
The tumor volumes and body weight were measured every 3 days, and tumor size was calculated as volume = (w^2l)/2, where w is the width and l is the length in mm of tumor[70]. […]

Q: Which results are given for [Zn(OD)2(H2O)2] (ClO4)2 [Complex 3]?
A: inhibitive ratio ([1]; HepG2, 20 μmol/L, 48 h): 89.58±1.22%; IC50 ([1]; HepG2, 48 h, MTT): 0.39 ± 0.03 µM; inhibitive ratio ([2]; BEL-7404, 20 μmol/L, 48 h): 61.00±0.19%; IC50 ([2]; BEL-7404, 48 h, MTT): 12.6 ± 0.45 µM; inhibitive ratio ([3]; MGC80-3, 20 μmol/L, 48 h): 67.30±0.21%; IC50 ([3]; MGC80-3, 48 h, MTT): 4.31 ± 0.31 µM; IC50 ([4]; SK-OV-3/DDP, MTT): 0.57 ± 0.07 µM; inhibitive ratio ([4]; SKOV-3/DDP, 20 μmol/L): 70.80±1.69%; inhibitive ratio ([5]; HL-7702, 20 μmol/L): 59.26±0.15%; IC50 ([5]; HL-7702 normal liver cells, MTT): 7.13 ± 0.46 µM; proportion of activated caspase-3 [6]: 36.9% and 36.5%; proportion of activated caspase-8 [7]: 41.5%; IR (tumor weight inhibition rate) ([8]; 3.0 mg/kg ip daily for 20 days): 26.4%; T/C (tumor relative increment rate) ([8]; 3.0 mg/kg ip daily for 20 days): 75.49%; IR (tumor weight inhibition rate) ([8]; 6.0 mg/kg ip daily for 20 days): 32.8%; T/C (tumor relative increment rate) ([8]; 6.0 mg/kg ip daily for 20 days): 55.57%; in vivo toxic effect (loss in body weight) [9]: no significant loss in body weight

Reference: article PMC5402304, “Oxoaporphine Metal Complexes (Co^II, Ni^II, Zn^II) with High Antitumor Activity by Inducing Mitochondria-Mediated Apoptosis and S-phase Arrest in HepG2” (Scientific Reports, 2017)
